Source: patent US5723485A, “1,2-Diarylindole derivatives, processes for their preparation and their uses in therapeutics” (Laboratories UPSA, priority 1996, dated 1998)

Experiments:
[1] = target: T1, COX-1 (purified enzyme from ram seminal vesicles) (Ovis aries, UniProt P05979); experiment: Inhibition of COX-1 enzymatic activity (PGE2 determined by EIA); format: biochemical; details: arachidonic acid 6 μM, mean ± standard deviation, 4 determinations; for inhibition at 10 µM: 10^-5 M; for inhibition at 0.1 µM: 10^-7 M
T1 construct: purified enzyme from ram seminal vesicles; from tissue; host or cells: ram seminal vesicles
T1 sequence (P05979 25-600): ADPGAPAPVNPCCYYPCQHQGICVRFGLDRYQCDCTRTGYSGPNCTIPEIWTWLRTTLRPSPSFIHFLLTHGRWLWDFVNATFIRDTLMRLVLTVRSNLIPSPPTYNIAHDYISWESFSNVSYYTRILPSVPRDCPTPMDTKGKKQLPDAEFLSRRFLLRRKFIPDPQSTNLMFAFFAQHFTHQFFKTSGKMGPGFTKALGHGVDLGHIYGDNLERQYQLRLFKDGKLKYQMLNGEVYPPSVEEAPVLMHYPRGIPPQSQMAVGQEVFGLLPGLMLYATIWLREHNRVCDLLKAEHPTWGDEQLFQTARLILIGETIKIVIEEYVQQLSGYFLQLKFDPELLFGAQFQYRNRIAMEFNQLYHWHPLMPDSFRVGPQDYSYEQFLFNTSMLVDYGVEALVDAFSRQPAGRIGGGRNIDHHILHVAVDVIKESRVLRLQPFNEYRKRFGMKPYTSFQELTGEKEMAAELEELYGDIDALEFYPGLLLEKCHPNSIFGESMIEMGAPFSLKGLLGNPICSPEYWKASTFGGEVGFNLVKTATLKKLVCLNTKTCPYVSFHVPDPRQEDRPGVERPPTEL
Method: (§1) The molecule studied is preincubated for 10 minutes at 25° C. with 2 U of COX-1 (purified enzyme from ram seminal vesicles) or 1 U of COX-2 (purified enzyme from ewe placenta). Arachidonic acid (6 μM for COX-1, 4 μM for COX-2) is added to the reaction medium and incubation is carried out for 5 minutes at 25° C. When incubation has ended, the enzymatic reaction is stopped by the addition of 1N HCl and the PGE2 produced is determined by EIA. The results are expressed as the percentage inhibition of the COX-1 and COX-2 enzymatic activities and correspond to mean (±) standard deviations from the average of 4 determinations.

[2] = target: T2, COX-2 (purified enzyme from ewe placenta) (Ovis aries, UniProt P79208); experiment: Inhibition of COX-2 enzymatic activity (PGE2 determined by EIA); format: biochemical; details: arachidonic acid 4 μM, mean ± standard deviation, 4 determinations; for inhibition at 10 µM: 10^-5 M
T2 construct: purified enzyme from ewe placenta; from tissue; host or cells: ewe placenta
T2 sequence (P79208 17-603): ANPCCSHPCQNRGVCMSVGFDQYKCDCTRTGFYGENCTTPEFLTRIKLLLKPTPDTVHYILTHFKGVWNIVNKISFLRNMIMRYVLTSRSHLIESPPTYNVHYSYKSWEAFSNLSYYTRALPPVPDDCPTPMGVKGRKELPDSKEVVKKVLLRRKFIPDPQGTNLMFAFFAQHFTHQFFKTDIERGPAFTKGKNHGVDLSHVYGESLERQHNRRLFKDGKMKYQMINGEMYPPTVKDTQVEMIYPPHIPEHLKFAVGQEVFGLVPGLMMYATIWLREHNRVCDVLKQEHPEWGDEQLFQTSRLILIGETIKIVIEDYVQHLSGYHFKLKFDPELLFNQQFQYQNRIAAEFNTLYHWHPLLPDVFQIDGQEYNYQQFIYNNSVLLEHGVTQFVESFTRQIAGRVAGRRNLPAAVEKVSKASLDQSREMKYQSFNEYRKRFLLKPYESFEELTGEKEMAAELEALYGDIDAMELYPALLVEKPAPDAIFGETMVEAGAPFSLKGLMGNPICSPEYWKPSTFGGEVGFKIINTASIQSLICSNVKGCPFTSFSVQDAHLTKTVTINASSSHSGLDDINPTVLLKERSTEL
Method: as §1

CS(=O)(=O)c1ccc(-c2cc3ccccc3n2-c2ccc(F)cc2)cc1 [Example 16, 1-(4-Fluorophenyl)-2-[4-(methylsulfonyl)phenyl]indole]
inhibition at 10 µM [1]: 36 ± 14%
inhibition at 0.1 µM [1]: 4 ± 4%
inhibition at 10 µM [2]: 83 ± 2%
inhibition at 0.1 µM ([2]; 10^-7 M): 29 ± 2%

Cc1ccc(-n2c(-c3ccc(S(C)(=O)=O)cc3)cc3ccccc32)cc1 [Example 17, 1-(4-Methylphenyl)-2-[4-(methylsulfonyl)phenyl]indole]
inhibition at 10 µM [1]: 29 ± 5%
inhibition at 0.1 µM [1]: 2 ± 2%
inhibition at 10 µM [2]: 89 ± 2%

CS(=O)(=O)c1ccc(-c2cc3ccccc3n2-c2ccccc2)cc1 [Example 18, 1-Phenyl-2-[4-(methylsulfonyl)phenyl]indole]
inhibition at 10 µM [1]: 23 ± 6%
inhibition at 0.1 µM [1]: 2 ± 2%
inhibition at 10 µM [2]: 88 ± 2%

CS(=O)(=O)c1ccc(-c2cc3ccccc3n2-c2ccc(Cl)cc2)cc1 [Example 19, 1-(4-Chlorophenyl)-2-[4-(methylsulfonyl)phenyl]indole]
inhibition at 10 µM [2]: 95%
